This is an account of results in ChEMBL document CHEMBL4842344, “Design, synthesis and biological activity evaluation of novel scopoletin-NO donor derivatives against MCF-7 human breast cancer in vitro and in vivo” (Eur J Med Chem, 2021).

SMILES strings stand for the structures. The source made the active and inactive calls. The rule behind the calls is not given here.

Data set [1] deals with MCF7. The experiment in a line: Inhibition of PI3K/AKT signalling pathway in human MCF7 cells assessed as reduction in phosphorylated AKT expression measured after 24 hrs by western blot analysis. It is filed as cell-based. The conditions noted are these: dose 0.5-2 µM.
For data set [2], the system named is MCF-10A. Put plainly: Cytotoxicity against human MCF-10A cells assessed as reduction in cell viability measured after 48 hrs by MTT assay. Type of data set: cell-based.
The test system of data set [3] is MCF7. The experiment in a line: Potency index, ratio of scopoletin derivative 5 IC50 to test compound IC50 for human MCF7 cells assessed as inhibition of cell growth measured after 48 hrs by MTT assay. Type of data set: functional.
Data set [4] relates to MCF7. Put plainly: Inhibition of cell proliferation in human MCF7 cells assessed as increase in intracellular NO production at 25 uM measured after 2.5 hrs by nitric oxide assay. Type of data set: functional, cell-based.
Data set [5] concerns MCF7. The experiment in a line: Antiproliferative activity against human MCF7 cells assessed as inhibition of cell proliferation at 2 uM pretreated with hemoglobin NO scavenger for 2 hrs followed by addition of compound and measured after 48 hrs by MTT assay. It is filed as functional, cell-based.
Data set [6] has as its system MCF7. Put plainly: Induction of cell cycle arrest in human MCF7 cells assessed as accumulation of cells in G1 phase at 0.25 uM measured after 24 hrs by propidium iodide staining based flow cytometry analysis (Rvb= 54.96%). Type of data set: functional.
The test system of data set [7] is MCF7. Put plainly: Induction of cell cycle arrest in human MCF7 cells assessed as accumulation of cells in G1 phase at 1 uM measured after 24 hrs by propidium iodide staining based flow cytometry analysis (Rvb= 54.96%). It is filed as functional.
Data set [8] deals with MCF7. The experiment in a line: Induction of apoptosis in human MCF7 cells assessed as live cells at 0.5 uM measured after 24 hrs by Annexin-V FITC/PI staining based flow cytometry analysis (Rvb= 93.0%). It is filed as functional.
In data set [9] the test system is MCF7. Put plainly: Induction of apoptosis in human MCF7 cells assessed as late apoptotic cells at 0.5 uM measured after 24 hrs by Annexin-V FITC/PI staining based flow cytometry analysis (Rvb= 5.61%). Type of data set: functional.
Data set [10] has as its system MCF7. The experiment in a line: Induction of apoptosis in human MCF7 cells assessed as early apoptotic cells at 1 uM measured after 24 hrs by Annexin-V FITC/PI staining based flow cytometry analysis (Rvb= 1.33%). It is filed as functional.
The subject of data set [11] is MCF7. The experiment in a line: Induction of apoptosis in human MCF7 cells assessed as late apoptotic cells at 1 uM measured after 24 hrs by Annexin-V FITC/PI staining based flow cytometry analysis (Rvb= 5.61%). It is filed as functional.
The subject of data set [12] is MCF7. Put plainly: Induction of apoptosis in human MCF7 cells assessed as upregulation of Bax expression at 0.5 to 2 uM measured after 24 hrs by western blot analysis. It is filed as functional, cell-based. The conditions noted are these: dose 0.5-2 µM.
Data set [13] relates to MCF7. Put plainly: Antitumor activity against human MCF7 cells xenografted in BALB/c nude mouse assessed as tumor growth inhibition at 60 mg/kg, ip administered once every 2 days for 21 consecutive days relative to control. It is filed as functional. The settings on record: 504 h, time 21 day, read-out: TGI.
A short description of data set [14]: Toxicity in BALB/c mouse xenografted with human MCF7 cells assessed as effect on spleen at 30 to 60 mg/kg, ip measured after 21 days by hematoxylin and eosin staining based histopathological analysis. The settings on record: in vivo, 504 h, dose 30-60 mg/kg, time 21 day. Type of data set: organism-based.

Regarding `COc1cc2cc(C(=O)NCc3ccc(F)cc3)c(=O)oc2cc1OCCCOc1no[n+]([O-])c1S(=O)(=O)c1ccccc1`, the inhibition entry in data set [1] is “Dose-Dependent Effect”. In [2], the IC50 turned out to be 8.46 µM. Moreover, the “Ratio IC50” value in data set [3] came to 5. In addition, the result in data set [4] and in data set [12] was Active. Further, the result in data set [5] was inactive. The Activity in [6] is on record as 52.88%; in [7], 36.65%; in data set [8] it was 83.1%; in [9] it was 9.19%; in data set [10] it was 9.38%; in data set [11], 27.2%. Further, the Activity result in [14] is recorded as “Non-Toxic”. Besides, the inhibition in vivo at 60 mg/kg in data set [13] was 75.2%.
